For experiment [1], the target named is pseudo-kinase domain (JH2) of human V617F mutant JAK2 (Homo sapiens (Human), UniProt O60674, F794H/V617F/W659A/W777A). Kind of experiment: JAK2 LanthaScreen JH2-V617F Binding Assay. Conditions: read-out: JH2 V617F Bind IC50. As to the method: JAK2 JH2-V617F binding assay utilizes pseudo-kinase domain (JH2, amino-acids 536-812 with 3 surface mutations W659A, W777A, F794H) of human V617F mutant JAK2 expressed as C-terminal His-Avi-tagged, biotinylated protein in a baculovirus expression system (BPS Bioscience, Catalog #79498). The assay was conducted in black 384-well polystyrene plates in a final reaction volume of 20 μL. JAK2 JH2-V617F (0.26 nM) was incubated with compounds (100 nL serially diluted in DMSO) in the presence of 50 nM Fluorescent JAK2-JH2 Tracer (MedChem Express Catalog #HY-102055) and 0.25 nM Streptavidin-Tb cryptate (Cisbio Part #610SATLB) in assay buffer (50 mM Tris, pH=7.5, 10 mM MgCl2, 0.01% Brij-35, 0.1% BSA, 1 mM EGTA, 5% Glycerol and 5 mM DTT). Non-specific binding was accessed in the presence of 2 mM ATP. After incubation for 1 hour at 25° C., LanthaScreen signals were read on a PHERAstar FS plate reader (BMG LABTECH). Data was analyzed with IDBS XLfit and GraphPad Prism 5.0 software using a four parameter dose response curve to determine IC50 for each compound.
Chain of pseudo-kinase domain (JH2) of human V617F mutant JAK2 (O60674 536-812 V617F/W659A/W777A/F794H): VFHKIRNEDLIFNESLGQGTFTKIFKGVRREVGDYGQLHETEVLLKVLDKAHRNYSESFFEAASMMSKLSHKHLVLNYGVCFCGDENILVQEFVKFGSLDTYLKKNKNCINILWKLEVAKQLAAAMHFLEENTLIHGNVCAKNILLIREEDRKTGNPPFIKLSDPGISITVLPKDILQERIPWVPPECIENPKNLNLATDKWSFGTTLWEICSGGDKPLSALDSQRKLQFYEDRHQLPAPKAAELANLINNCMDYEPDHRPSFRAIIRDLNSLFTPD

Experiment [2] has as its target FLT3 (Homo sapiens (Human), UniProt P36888). The experiment in a line: FLT3 Enzymatic Assay. In kind it is biochemical. As to conditions: 1 mM ATP. As to the method:
(§1) The kinase assays were carried out at room temperature in assay buffer (HEPES 50 mM, pH 7.0, NaN3 0.02%, BSA 0.01%, Orthovanadate 0.1 mM, DTT 1 mM, MgCl2 10 mM) in a final volume of 10 μL. Testing compounds were prepared by serial dilution in DMSO and transferred to the plate wells by ECHO liquid handler (Labcyte) with 0.5% DMSO in the final assay. […]. Reactions were initiated by the addition of 5 μL ATP in assay buffer. The final 10 μL kinase reaction consists of 0.011 nM FLT3, 1 mM ATP, 500 nM TK Substrate-biotin and SEB reagent 62.5 nM in assay buffer. […] The plates were then sealed and centrifuged at 1800 rpm for 2 minutes. After 60 minutes incubation at room temperature, the product activity was determined by measuring the fluorescence at 620 nm and 665 nm on Pherastar microplate reader (BMG Labtech). A ratio is calculated (665/620 nm) for each well. Wells with DMSO only were served as the positive controls and wells containing no ATP were used as negative controls. IC50 determination was performed by fitting the curve of percent control activity versus the log of the compound concentration using the GraphPad Prism 7.0 software.

Experiment [3] has as its system FLT3. The experiment in a line: FLT3 Enzymatic Assay. Format: biochemical. Here is the method: as §1
Experiment [4] has as its target TRKA (Homo sapiens (Human), UniProt P04629). The experiment in a line: TRKA Enzymatic Assay. In kind it is biochemical. Conditions: 1 mM ATP. Here is the method:
(§2) The kinase assays were carried out at 24° C. temperature in assay buffer (HEPES 50 mM, pH 7.0, NaN3 0.02%, BSA 0.01%, Orthovanadate 0.1 mM, DTT 1 mM, MgCl2 10 mM) in a final volume of 10 μL. Testing compounds were prepared by serial dilution in DMSO and transferred to the plate wells by ECHO liquid handler (Labcyte) with 0.5% DMSO in the final assay. […]. Reactions were initiated by the addition of 5 μL ATP in assay buffer. The final 10 μL kinase reaction consisted of 0.58 nM TRKA, 1 mM ATP, 500 nM TK Substrate-biotin and SEB reagent 62.5 nM in assay buffer. […] After 60 minutes incubation at room temperature, the product activity was determined by measuring the fluorescence at 620 nm and 665 nm on Pherastar microplate reader (BMG Labtech). A ratio was calculated (665/620 nm) for each well. Wells with DMSO only served as the positive controls and wells containing no ATP were used as negative controls. IC50 determination was performed by fitting the curve of percent control activity versus the log of the compound concentration using the Gene data.

The test system of experiment [5] is TRKA. The experiment in a line: TRKA Enzymatic Assay. Format: biochemical. As to the method: as §2
Experiment [6] has as its system STAT5 (Tyr694) phosphorylation in SET-2 cells. The experiment in a line: STAT5 (Tyr694) Phosphorylation Cell Based Assay. Conditions: Homo sapiens, 2 hours, read-out: SET2 IC50. Here is the method: SET-2 cells was purchased from DSMZ (Germany). RPMI1640 medium, Fetal Bovine Serum and 384-white sold flat-bottom small volume plate were purchased from Thermo Fisher Scientific (Waltham, MA). Phospho-STAT5 (Tyr694) HTRF kit was purchased from Perkin Elmer (Waltham, MA).
SET-2 cells were cultured in RPMI media with 20% FBS at 37° C. in humidified incubator supplied with 5% CO2. On the day of assay, the cells were centrifuged to remove the culture media and resuspended with prewarmed RPMI with 10% FBS. Testing compounds were prepared by serial dilution in DMSO and 50 nL/well test compounds were transferred to the 384 white low volume cell culture plate (Greiner Bio-one) by ECHO liquid handler (Labcyte). The cells were then dispensed with Multidrop (Thermo Fisher, Waltham, MA) at 10 μL/well (7×10^6 cells/mL) with 0.5% DMSO in the final assay. After the treated cells were incubated for 2 hours at 37° C./5% CO2 incubator, 4 μL/well supplemented lysis buffer (100× blocking buffer diluted 25 fold in 4× lysis buffer, Perkin Elmer) were added and incubated at room temperature for 90 min on orbital shaker at 600 rpm. Phospho-STAT5 Cryptate antibody and Phospho-STAT5 d2 antibody (1:1 vol/vol) were premixed and diluted 20 fold with in the detection buffer (Perkin Elmer). 4 μL of the premixed antibody solution were added to each well followed with 24 hours incubation at room temperature on orbital shaker at 600 rpm. The product activity was determined by measuring the fluorescence at 620 nm and 665 nm on Pherastar microplate reader (BMG Labtech). A ratio is calculated (665/620) for each well. Wells with DMSO only served as the positive controls and wells containing high concentration of control compound were used as negative controls. IC50 determination was performed by fitting the curve of percent control activity versus the log of the compound concentration using the GraphPad Prism 7.0 software.

Experiment [7] deals with catalytic domain (JH1) of human JAK2 (Homo sapiens (Human), UniProt O60674). Kind of experiment: JAK2 LanthaScreen JH1 Binding Assay. As to conditions: read-out: JH1 Bind IC50. As to the method: JAK2 JH1 binding assay utilizes catalytic domain (JH1, amino acids 826-1132) of human JAK2 expressed as N-terminal FLAG-tagged, biotinylated protein in a baculovirus expression system (Carna Biosciences, Product #08-445-20N). The assay was conducted in black 384-well polystyrene plates in a final reaction volume of 20 μL. JAK2 JH1 (1.5 nM) was incubated with compounds (100 nL serially diluted in DMSO) in the presence of 50 nM fluorescent JAK2-JH1 tracer and 0.5 nM Streptavidin-Tb cryptate (Cisbio Part #610SATLB) in assay buffer (50 mM Tris, pH=7.5, 10 mM MgCl2, 0.01% Brij-35, 0.1% BSA, 1 mM EGTA, 5% Glycerol and 5 mM DTT). Non-specific binding was accessed in the presence of 2 mM ATP. After incubation for 2 hours at 25° C., LanthaScreen signals were read on a PHERAstar FS plate reader (BMG LABTECH). Data was analyzed with IDBS XLfit and GraphPad Prism 5.0 software using a four parameter dose response curve to determine IC50 for each compound.
Chain of catalytic domain (JH1) of human JAK2 (O60674 826-1132): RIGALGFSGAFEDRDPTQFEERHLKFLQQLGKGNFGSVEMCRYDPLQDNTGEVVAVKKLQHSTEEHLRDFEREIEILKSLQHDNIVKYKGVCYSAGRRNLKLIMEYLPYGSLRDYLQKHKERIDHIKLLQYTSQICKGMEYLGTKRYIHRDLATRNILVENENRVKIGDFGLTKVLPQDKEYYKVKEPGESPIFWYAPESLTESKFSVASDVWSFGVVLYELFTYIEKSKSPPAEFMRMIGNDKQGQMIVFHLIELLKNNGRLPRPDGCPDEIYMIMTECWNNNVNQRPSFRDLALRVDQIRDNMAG
A general note: Time-resolved FRET reads energy transfer from a long-lived donor to a nearby acceptor.

Consider 9 compounds from patent US20250092044A1, “Kinase Inhibitors” (Incyte Corporation, priority 2023, published 2025).

Broadly, the IC50 is the concentration needed to halve the response being measured.

Chain of FLT3 (Homo sapiens (Human), UniProt P36888) (P36888 27-993, species assumed): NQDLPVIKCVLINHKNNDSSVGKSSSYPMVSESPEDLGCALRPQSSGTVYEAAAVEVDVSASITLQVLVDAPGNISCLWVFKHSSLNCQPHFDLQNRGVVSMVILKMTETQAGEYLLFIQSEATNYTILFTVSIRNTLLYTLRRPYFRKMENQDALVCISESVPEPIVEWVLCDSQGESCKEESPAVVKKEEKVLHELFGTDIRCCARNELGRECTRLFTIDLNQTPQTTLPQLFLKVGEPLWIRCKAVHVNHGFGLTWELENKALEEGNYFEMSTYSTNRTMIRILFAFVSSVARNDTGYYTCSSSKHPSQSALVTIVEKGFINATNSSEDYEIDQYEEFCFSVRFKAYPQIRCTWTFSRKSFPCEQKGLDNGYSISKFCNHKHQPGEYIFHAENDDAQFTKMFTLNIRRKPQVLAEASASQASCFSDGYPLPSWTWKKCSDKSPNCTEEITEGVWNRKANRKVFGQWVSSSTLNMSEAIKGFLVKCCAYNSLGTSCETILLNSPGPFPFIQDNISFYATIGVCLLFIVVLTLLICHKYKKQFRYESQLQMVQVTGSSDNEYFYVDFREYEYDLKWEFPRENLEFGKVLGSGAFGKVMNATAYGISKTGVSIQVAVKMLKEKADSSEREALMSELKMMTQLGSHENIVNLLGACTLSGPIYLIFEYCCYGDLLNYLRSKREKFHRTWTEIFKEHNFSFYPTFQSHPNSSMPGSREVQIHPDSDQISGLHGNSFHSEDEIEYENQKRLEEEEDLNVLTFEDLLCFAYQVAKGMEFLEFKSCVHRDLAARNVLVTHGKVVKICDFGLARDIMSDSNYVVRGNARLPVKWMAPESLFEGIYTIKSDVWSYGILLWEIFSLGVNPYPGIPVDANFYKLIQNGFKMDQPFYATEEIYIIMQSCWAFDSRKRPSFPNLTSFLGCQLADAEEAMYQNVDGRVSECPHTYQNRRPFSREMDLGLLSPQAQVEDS
Chain of TRKA (Homo sapiens (Human), UniProt P04629) (P04629 33-796, species assumed): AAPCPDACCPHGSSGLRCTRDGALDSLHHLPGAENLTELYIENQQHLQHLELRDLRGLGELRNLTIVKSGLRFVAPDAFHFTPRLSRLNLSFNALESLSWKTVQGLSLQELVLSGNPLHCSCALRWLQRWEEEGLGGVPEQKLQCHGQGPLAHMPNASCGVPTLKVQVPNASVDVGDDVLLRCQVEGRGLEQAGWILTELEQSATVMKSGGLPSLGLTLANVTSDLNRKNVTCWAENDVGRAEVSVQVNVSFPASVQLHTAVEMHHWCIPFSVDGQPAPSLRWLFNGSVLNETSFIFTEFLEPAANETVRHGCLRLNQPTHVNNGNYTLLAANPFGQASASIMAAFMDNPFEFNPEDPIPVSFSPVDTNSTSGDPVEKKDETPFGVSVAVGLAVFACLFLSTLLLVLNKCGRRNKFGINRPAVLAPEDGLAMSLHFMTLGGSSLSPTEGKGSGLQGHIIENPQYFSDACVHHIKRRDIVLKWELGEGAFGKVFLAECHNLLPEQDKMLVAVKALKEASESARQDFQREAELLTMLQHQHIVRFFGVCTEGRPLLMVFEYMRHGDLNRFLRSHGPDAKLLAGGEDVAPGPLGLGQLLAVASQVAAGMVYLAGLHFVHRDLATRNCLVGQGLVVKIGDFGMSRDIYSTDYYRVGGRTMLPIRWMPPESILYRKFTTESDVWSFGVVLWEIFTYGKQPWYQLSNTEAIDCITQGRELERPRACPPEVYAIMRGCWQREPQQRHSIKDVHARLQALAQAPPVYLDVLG

As to `Cn1ncc2cc(-c3c(-c4ccc(CN5CCC(S(C)(=O)=O)CC5)cc4)[nH]c4ncc5c(c34)n(C3CCCC3)c(=O)n5C)ccc21` [Comparative Example I, reference compound], the IC50 in experiment [1] is at most 10 nM; in experiment [2], under 25 nM; in experiment [4], under 25 nM; in experiment [6], 300 to 800 nM. Further, the “Selectivity FLT3/JH2 V617F” value in experiment [3] is “* (selectivity of ≤500-fold)”. Besides, the “Selectivity TRKA/JH2 V617F” value in experiment [5] is given as “* (selectivity of ≤500-fold)”.

In the case of `COC(=O)N[C@@H]1CC[C@@H](n2c(=O)n(C)c3cnc4[nH]c(-c5cc(F)c(C(=O)NC6CC6)c(F)c5)c(-c5cccc(F)c5)c4c32)C1` [Example 4, Methyl ((1R,3R)-3-(7-(4-(cyclopropylcarbamoyl)-3,5-difluorophenyl)-8-(3-fluorophenyl)-3-methyl-2-oxo-3,6-dihydroimidazo[4,5-d]pyrrolo[2,3-b]pyridin-1(2H)-yl)cyclopentyl)carbamate], the values for the IC50 in experiment [1], in experiment [7] and in experiment [6] were at most 10 nM, over 1000 nM and over 800 nM, respectively.

As to `COC(=O)N[C@@H]1CC[C@@H](n2c(=O)n(C)c3cnc4[nH]c(-c5ccc(C(=O)NC(C)C)c(F)c5)c(-c5cccc(F)c5)c4c32)C1` [Example 2, Methyl ((1R,3R)-3-(7-(3-fluoro-4-(isopropylcarbamoyl)phenyl)-8-(3-fluorophenyl)-3-methyl-2-oxo-3,6-dihydroimidazo[4,5-d]pyrrolo[2,3-b]pyridin-1(2H)-yl)cyclopentyl)carbamate], the IC50 was at most 10 nM in experiment [1], over 1000 nM in experiment [7] and over 800 nM in experiment [6].

Consider `Cn1cc(-c2[nH]c3ncc4c(c3c2-c2ccc3c(cnn3C)c2)n([C@H]2CC[C@@H](CC#N)CC2)c(=O)n4C)cn1` [Comparative Example C, reference compound], for which the IC50 in experiment [1] is at most 10 nM; in experiment [2] it was under 25 nM; in experiment [4], under 25 nM. For the same compound, the “Selectivity FLT3/JH2 V617F” value in experiment [3] was “* (selectivity of ≤500-fold)”. Also, the “Selectivity TRKA/JH2 V617F” value in experiment [5] was “* (selectivity of ≤500-fold)”.

In the case of `CNC(=O)c1c(F)cc(-c2[nH]c3ncc4c(c3c2-c2cccc(F)c2)n([C@@H]2CC[C@@H](NC(=O)OC)C2)c(=O)n4C)cc1F` [Example 3, Methyl ((1R,3R)-3-(7-(3,5-difluoro-4-(methylcarbamoyl)phenyl)-8-(3-fluorophenyl)-3-methyl-2-oxo-3,6-dihydroimidazo[4,5-d]pyrrolo[2,3-b]pyridin-1(2H)-yl)cyclopentyl)carbamate], the IC50 in experiment [1] is at most 10 nM; in experiment [7], over 1000 nM; in experiment [6], over 800 nM.

Take `COC(=O)N[C@@H]1CC[C@@H](n2c(=O)n(C)c3cnc4[nH]c(-c5ccc(C(=O)N6CC(OC)C6)c(F)c5)c(-c5ccc6c(cnn6C(C)C)c5)c4c32)C1` [Example 17, Methyl ((1R,3R)-3-(7-(3-fluoro-4-(3-methoxyazetidine-1-carbonyl)phenyl)-8-(1-isopropyl-1H-indazol-5-yl)-3-methyl-2-oxo-3,6-dihydroimidazo[4,5-d]pyrrolo[2,3-b]pyridin-1(2H)-yl)cyclopentyl)carbamate]: the IC50 in experiment [1] is at most 10 nM; in experiment [7], over 1000 nM; in experiment [6] it was over 800 nM.

In the case of `CNC(=O)c1ccc(-c2[nH]c3ncc4c(c3c2-c2cccc(F)c2)n([C@@H]2CC[C@@H](NC(=O)OC)C2)c(=O)n4C)cc1F` [Example 1, Methyl ((1R,3R)-3-(7-(3-fluoro-4-(methylcarbamoyl)phenyl)-8-(3-fluorophenyl)-3-methyl-2-oxo-3,6-dihydroimidazo[4,5-d]pyrrolo[2,3-b]pyridin-1(2H)-yl)cyclopentyl)carbamate], the IC50 in experiment [1] was at most 10 nM; in experiment [7] it was over 1000 nM; in experiment [6], over 800 nM.

In the case of `Cn1c(=O)n(C2CCCC2)c2c3c(-c4ccccc4)c(-c4ccc(CN5CCC(S(C)(=O)=O)CC5)cc4)[nH]c3ncc21` [Comparative Example H, reference compound], the IC50 in experiment [1] is at most 10 nM; in experiment [2], 25 to 250 nM; in experiment [4], 25 to 250 nM; in experiment [6], 300 to 800 nM. In addition, the “Selectivity FLT3/JH2 V617F” value in experiment [3] is “* (selectivity of ≤500-fold)”. Also, the “Selectivity TRKA/JH2 V617F” value in experiment [5] is given as “* (selectivity of ≤500-fold)”.

Consider `CCn1c(=O)n(C2CCCC2)c2c3cc(-c4ccc(CN5CCC(S(C)(=O)=O)CC5)cc4)[nH]c3ncc21` [Comparative Example G, reference compound], for which the IC50 in experiment [1] was over 1000 nM.
